Experiments:
[1] = test system: purple nutsedge; test: Test B pre/postemergence purple nutsedge; assay type: in vivo, Cyperus rotundus; settings: for Plant response rating, Nutsedge: scale of 0 to 10 where 0 is no effect and 10 is complete control
In short: (§1)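 Test chemicals in a non-phytotoxic solvent mixture with surfactant were sprayed preemergence onto planted seeds and postemergence onto plants 2 to 18 cm tall (1- to 4-leaf stage). After twelve to sixteen days in a greenhouse, injury was visually rated against untreated controls from 0 (no effect) to 10 (complete control).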

[2] = test system: blackgrass; test: Test B pre/postemergence blackgrass; assay type: in vivo, Alopecurus myosuroides
In short: as §1

[3] = test system: surinam grass; test: Test B pre/postemergence surinam grass; assay type: in vivo, Brachiaria decumbens
In short: as §1

[4] = test system: velvetleaf; test: Test B pre/postemergence velvetleaf; assay type: in vivo, Abutilon theophrasti; settings: for Plant response rating, Velvetleaf: scale of 0 to 10 where 0 is no effect and 10 is complete control
In short: as §1

[5] = test system: bamyardgrass; test: Test B flood test barnyardgrass; assay type: in vivo, Echinochloa crus-galli
In short: (§2)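 Flood test on plants grown to the 2-leaf stage; treated plants kept in greenhouse twelve to sixteen days, then visually rated against controls on a 0 (no effect) to 10 (complete control) scale.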

[6] = test system: pigweed; test: Test B pre/postemergence pigweed; assay type: in vivo, Amaranthus retroflexus; settings: for Plant response rating, Redroot pigweed: scale of 0 to 10 where 0 is no effect and 10 is complete control
In short: as §1

[7] = test system: wild oat; test: Test B pre/postemergence wild oat; assay type: in vivo, Avena fatua; settings: for Plant response rating, Wild oats: scale of 0 to 10 where 0 is no effect and 10 is complete control
In short: as §1

[8] = test system: morningglory; test: Test B pre/postemergence morningglory; assay type: in vivo, Ipomoea hederacea; settings: for Plant response rating, Morningglory: scale of 0 to 10 where 0 is no effect and 10 is complete control
In short: as §1

[9] = test system: bedstraw; test: Test B pre/postemergence bedstraw; assay type: in vivo, Galium aparine; settings: scale of 0 to 10 where 0 is no effect and 10 is complete control; for Plant response rating, Bedstraw: Preemergence
In short: as §1

[10] = test system: duck salad; test: Test B flood test duck salad; assay type: in vivo, Heteranthera limosa
In short: as §2

[11] = test system: sugar beet; test: Test B pre/postemergence sugar beet; assay type: in vivo, Beta vulgaris; settings: for Plant response rating, Sugarbeets: scale of 0 to 10 where 0 is no effect and 10 is complete control
In short: as §1

[12] = test system: cocklebur; test: Test B pre/postemergence cocklebur; assay type: in vivo, Xanthium strumarium
In short: as §1

[13] = test system: rice; test: Test B flood test rice; assay type: in vivo, Oryza sativa
In short: as §2

[14] = test system: wheat; test: Test B pre/postemergence wheat; assay type: in vivo, Triticum aestivum; settings: for Plant response rating, Wheat: scale of 0 to 10 where 0 is no effect and 10 is complete control
In short: as §1

[15] = test system: giant foxtail; test: Test B pre/postemergence giant foxtail; assay type: in vivo, Setaria faberii
In short: as §1

[16] = test system: crabgrass; test: Test B pre/postemergence crabgrass; assay type: in vivo, Digitaria sanguinalis
In short: as §1

[17] = Postemergence, Rate 250 g/ha, scale 0 to 10
[18] = Preemergence, Rate 250 g/ha, scale 0 to 10, 0 is no effect, 10 is complete control
[19] = Preemergence, Rate 500 g/ha, scale 0 to 10, 0 is no effect, 10 is complete control
[20] = Rate 62 g/ha, Postemergence, scale 0 to 10 (0 no effect, 10 complete control)
[21] = Rate 125 g/ha, Postemergence, scale 0 to 10, 0 is no effect, 10 is complete control
[22] = Postemergence, Rate 500 g/ha, scale of 0 to 10 where 0 is no effect and 10 is complete control
[23] = Preemergence, Rate 62 g/ha, scale of 0 to 10 where 0 is no effect and 10 is complete control
[24] = Preemergence, Rate 125 g/ha, scale of 0 to 10 where 0 is no effect and 10 is complete control
[25] = Rate 62 g/ha, flood test species, Pre-emergence, visual evaluation after twelve to sixteen days
[26] = Rate 125 g/ha, under heading Pre-emergence, flood test species, visual evaluation after twelve to sixteen days
[27] = Rate 250 g/ha, Pre-emergence (flood test species), scale 0 to 10, 0 is no effect, 10 is complete control
[28] = Rate 500 g/ha, Pre-emergence, flood test species, scale 0 to 10 (0 no effect, 10 complete control)

Structure (SMILES): CC[Si](C)(C)Cn1c(=O)on(C(=O)N(c2ccc(Cl)cc2)C(C)C)c1=O [Compound 460]
- Nutsedge plant response rating [1, 17]: 0
- Plant response rating, Nutsedge ([1]; Preemergence, Rate 62 g/ha): 0
- Plant response rating, Nutsedge ([1]; Preemergence, Rate 125 g/ha): 0
- Nutsedge plant response rating [1, 18]: 0
- Nutsedge plant response rating [1, 19]: 0
- Nutsedge plant response rating [1, 20]: 0
- Nutsedge plant response rating [1, 21]: 0
- Blackgrass plant response rating [2, 22]: 8
- Plant response rating, Blackgrass [2, 23]: 0
- Plant response rating, Blackgrass [2, 24]: 0
- Blackgrass plant response rating [2, 18]: 0
- Blackgrass plant response rating [2, 19]: 3
- Blackgrass plant response rating [2, 20]: 2
- B. signalgrass plant response rating ([3]; Postemergence, Rate 250 g/ha, scale 0 to 10, 0 no effect, 10 complete control): 0
- B. signalgrass plant response rating [3, 22]: 2
- Plant response rating, B. signalgrass [3, 23]: 0
- Plant response rating, B. signalgrass [3, 24]: 0
- B. signalgrass plant response rating [3, 18]: 0
- B. signalgrass plant response rating [3, 19]: 0
- B. signalgrass plant response rating [3, 20]: 0
- B. signalgrass plant response rating [3, 21]: 0
- Velvetleaf plant response rating [4, 17]: 0
- Plant response rating, Velvetleaf ([4]; Preemergence, Rate 62 g/ha): 0
- Plant response rating, Velvetleaf ([4]; Preemergence, Rate 125 g/ha): 0
- Velvetleaf plant response rating [4, 18]: 0
- Velvetleaf plant response rating [4, 19]: 0
- Velvetleaf plant response rating [4, 20]: 0
- Velvetleaf plant response rating [4, 21]: 0
- Plant response rating, Barnyardgrass (0 to 10 scale, 0 is no effect, 10 is complete control) [5, 25]: 0
- Barnyardgrass plant response rating (0 to 10 scale, 0 is no effect, 10 is complete control) [5, 26]: 0
- Barnyardgrass plant response rating [5, 27]: 0
- Barnyardgrass plant response rating [5, 28]: 0
- Redroot pigweed plant response rating [6, 17]: 1
- Plant response rating, Redroot pigweed ([6]; Preemergence, Rate 62 g/ha): 0
- Plant response rating, Redroot pigweed ([6]; Preemergence, Rate 125 g/ha): 0
- Redroot pigweed plant response rating [6, 18]: 0
- Redroot pigweed plant response rating [6, 19]: 0
- Redroot pigweed plant response rating [6, 20]: 0
- Redroot pigweed plant response rating [6, 21]: 0
- Wild oats plant response rating [7, 17]: 0
- Plant response rating, Wild oats ([7]; Preemergence, Rate 62 g/ha): 0
- Plant response rating, Wild oats ([7]; Preemergence, Rate 125 g/ha): 0
- Wild oats plant response rating [7, 18]: 0
- Wild oats plant response rating [7, 19]: 0
- Wild oats plant response rating [7, 20]: 0
- Wild oats plant response rating [7, 21]: 0
- Morningglory plant response rating [8, 17]: 7
- Plant response rating, Morningglory ([8]; Preemergence, Rate 62 g/ha): 0
- Plant response rating, Morningglory ([8]; Preemergence, Rate 125 g/ha): 0
- Morningglory plant response rating [8, 18]: 0
- Morningglory plant response rating [8, 19]: 0
- Morningglory plant response rating [8, 20]: 7
- Morningglory plant response rating [8, 21]: 7
- Bedstraw plant response rating ([9]; Postemergence, Rate 500 g/ha): 8
- Plant response rating, Bedstraw ([9]; Rate 62 g/ha): 0
- Plant response rating, Bedstraw ([9]; Rate 125 g/ha): 0
- Plant response rating, Ducksalad (0 to 10 scale, 0 is no effect, 10 is complete control) [10, 25]: 0
- Ducksalad plant response rating (0 to 10 scale, 0 is no effect, 10 is complete control) [10, 26]: 0
- Ducksalad plant response rating [10, 27]: 0
- Ducksalad plant response rating [10, 28]: 0
- Sugarbeets plant response rating [11, 17]: 0
- Plant response rating, Sugarbeets ([11]; Preemergence, Rate 62 g/ha): 0
- Plant response rating, Sugarbeets ([11]; Preemergence, Rate 125 g/ha): 0
- Sugarbeets plant response rating [11, 18]: 0
- Sugarbeets plant response rating [11, 19]: 0
- Sugarbeets plant response rating [11, 20]: 0
- Sugarbeets plant response rating [11, 21]: 0
- Cocklebur plant response rating [12, 17]: 0
- Cocklebur plant response rating [12, 22]: 0
- Plant response rating, Cocklebur [12, 23]: 0
- Plant response rating, Cocklebur [12, 24]: 0
- Cocklebur plant response rating [12, 18]: 0
- Cocklebur plant response rating [12, 19]: 0
- Cocklebur plant response rating [12, 20]: 0
- Cocklebur plant response rating [12, 21]: 0
- Plant response rating, Rice (0 to 10 scale, 0 is no effect, 10 is complete control) [13, 25]: 0
- Rice plant response rating (0 to 10 scale, 0 is no effect, 10 is complete control) [13, 26]: 0
- Rice plant response rating [13, 27]: 0
- Rice plant response rating [13, 28]: 0
- Wheat plant response rating [14, 17]: 0
- Plant response rating, Wheat ([14]; Preemergence, Rate 62 g/ha): 0
- Plant response rating, Wheat ([14]; Preemergence, Rate 125 g/ha): 0
- Wheat plant response rating [14, 18]: 0
- Wheat plant response rating [14, 19]: 0
- Wheat plant response rating [14, 20]: 0
- Wheat plant response rating [14, 21]: 0
- Giant foxtail plant response rating [15, 17]: 0
- Giant foxtail plant response rating [15, 22]: 1
- Plant response rating, Giant foxtail [15, 23]: 0
- Plant response rating, Giant foxtail [15, 24]: 6
- Giant foxtail plant response rating [15, 18]: 8
- Giant foxtail plant response rating [15, 19]: 9
- Giant foxtail plant response rating [15, 20]: 0
- Giant foxtail plant response rating [15, 21]: 0
- Crabgrass plant response rating [16, 17]: 9
- Crabgrass plant response rating [16, 22]: 9
- Plant response rating, Crabgrass [16, 23]: 0
- Plant response rating, Crabgrass [16, 24]: 1
- Crabgrass plant response rating [16, 18]: 6
- Crabgrass plant response rating [16, 19]: 9
- Crabgrass plant response rating [16, 20]: 3
- Crabgrass plant response rating [16, 21]: 6
